These results are taken from patent US20250256005A1, “FLOWABLE PASTE WITH ELLAGIC ACID-NICKEL COMPLEX AND USES THEREOF FOR ACTIVATING COAGULATION” (Ethicon, Inc., priority 2024, published 2025).

SMILES strings stand for the structures.

For this experiment, the system named is citrated whole blood (intrinsic pathway of coagulation). In words: Whole Blood (WB) gelation test. The experiment is classed as biochemical. Conditions: ellagic acid without Nickel or any other metal.

Description: The aim was to assess how quickly the activators clot fresh whole blood.
These clotting time assays evaluate the ability of a material to active the intrinsic pathway to form a fibrin clot in whole blood after recalcification of citrated blood. Fresh citrated blood is used to preserve clotting factors.
WB Gelation Test: The WB gelation test uses a larger volume of blood compared to a small volume ACT tube to accommodate biomaterials, e.g., gelatins, collagen, thus allowing the WB gelation test to assess interactions between activators and biomaterials. […] To address this limitation, the WB Gelation Test was developed with a heated enclosure and larger tubes to accommodate larger volumes of blood and greater amounts of activators. Setup includes a plexiglass enclosure with a heating unit to perform the testing at 37° C. A temperature sensor in the enclosure maintained the temperature at 37° C. ±1° C. The enclosure contains an orbital rotator to gently mix the blood to with the other materials being tested while keeping it warm. The calcium saline and tube rocker are also in the enclosure. The enclosure has a front hinge to allow access from the front of the unit.
In exemplary procedures, citrated whole blood (4 ml) was added to a 15 ml conical tube with activator/biomaterial and mixed, then calcium saline solution (2 ml) was added to the tube and the timer is started. […]

Turning to `O=c1oc2c(O)c(O)cc3c(=O)oc4c(O)c(O)cc1c4c23` [Ellagic acid, ellagic acid], the “time over which no clotting was observed” value is given as “over 1200 minutes”.
